PubChem BioAssay (NCI)
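Five compound concentrations were applied to cells in 96-well plates for 48 hours; endpoints were derived by simple linear interpolation of the resulting dose-response curve. TGI denotes the concentration required for complete inhibition of growth.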

System: SF-268 CNS
Experiment: inhibition of tumour cell growth, NCI panel, 48 h

SMILES | TGI
CCc1nc(N)c2nc(-c3ccc(C#N)cc3)oc2n1 | > 100 µM
S=C(NCCc1ccccn1)c1nc[nH]c1C(=S)NCCc1ccccn1 | > 100 µM

System: UACC-62 melanoma
Experiment: inhibition of tumour cell growth, NCI panel, 48 h

SMILES | TGI
Cc1ncc(CSc2ccccc2N)c(CO)c1O | > 100 µM
COC(=O)CCC1(C)C2CCC1/C(=N/O)C2 (stereo not drawn) | > 100 µM
O=C1/C(=C\c2cccc(Oc3ccccc3)c2)S(=O)(=O)C(c2ccccc2)N1c1cc(Cl)ccc1Cl (stereo not drawn) | 36.7 µM
CCc1nc(N)c2nc(-c3ccc(C#N)cc3)oc2n1 | > 100 µM
S=C(NCCc1ccccn1)c1nc[nH]c1C(=S)NCCc1ccccn1 | 56.2 µM

System: MDA-MB-435
Experiment: inhibition of tumour cell growth, NCI panel, 48 h

SMILES | TGI
Cc1ncc(CSc2ccccc2N)c(CO)c1O | > 100 µM
COC(=O)CCC1(C)C2CCC1/C(=N/O)C2 (stereo not drawn) | > 100 µM
O=C1/C(=C\c2cccc(Oc3ccccc3)c2)S(=O)(=O)C(c2ccccc2)N1c1cc(Cl)ccc1Cl (stereo not drawn) | 36.5 µM
CCc1nc(N)c2nc(-c3ccc(C#N)cc3)oc2n1 | > 100 µM
S=C(NCCc1ccccn1)c1nc[nH]c1C(=S)NCCc1ccccn1 | > 100 µM

System: ACHN renal
Experiment: inhibition of tumour cell growth, NCI panel, 48 h

SMILES | TGI
Cc1ncc(CSc2ccccc2N)c(CO)c1O | > 100 µM
COC(=O)CCC1(C)C2CCC1/C(=N/O)C2 (stereo not drawn) | > 100 µM
O=C1/C(=C\c2cccc(Oc3ccccc3)c2)S(=O)(=O)C(c2ccccc2)N1c1cc(Cl)ccc1Cl (stereo not drawn) | 44.6 µM
CCc1nc(N)c2nc(-c3ccc(C#N)cc3)oc2n1 | > 100 µM
S=C(NCCc1ccccn1)c1nc[nH]c1C(=S)NCCc1ccccn1 | > 100 µM

System: NCI-H226 lung
Experiment: inhibition of tumour cell growth, NCI panel, 48 h

SMILES | TGI
Cc1ncc(CSc2ccccc2N)c(CO)c1O | > 100 µM
COC(=O)CCC1(C)C2CCC1/C(=N/O)C2 (stereo not drawn) | > 100 µM
CCc1nc(N)c2nc(-c3ccc(C#N)cc3)oc2n1 | > 100 µM
S=C(NCCc1ccccn1)c1nc[nH]c1C(=S)NCCc1ccccn1 | > 100 µM

System: SK-OV-3 ovarian
Experiment: inhibition of tumour cell growth, NCI panel, 48 h

SMILES | TGI
Cc1ncc(CSc2ccccc2N)c(CO)c1O | > 100 µM
COC(=O)CCC1(C)C2CCC1/C(=N/O)C2 (stereo not drawn) | > 100 µM
O=C1/C(=C\c2cccc(Oc3ccccc3)c2)S(=O)(=O)C(c2ccccc2)N1c1cc(Cl)ccc1Cl (stereo not drawn) | 88.3 µM
S=C(NCCc1ccccn1)c1nc[nH]c1C(=S)NCCc1ccccn1 | > 100 µM

System: LOX IMVI melanoma
Experiment: inhibition of tumour cell growth, NCI panel, 48 h

SMILES | TGI
Cc1ncc(CSc2ccccc2N)c(CO)c1O | > 100 µM
O=C1/C(=C\c2cccc(Oc3ccccc3)c2)S(=O)(=O)C(c2ccccc2)N1c1cc(Cl)ccc1Cl (stereo not drawn) | 23.8 µM
CCc1nc(N)c2nc(-c3ccc(C#N)cc3)oc2n1 | > 100 µM
S=C(NCCc1ccccn1)c1nc[nH]c1C(=S)NCCc1ccccn1 | 45.5 µM

System: MOLT-4 leukemia
Experiment: inhibition of tumour cell growth, NCI panel, 48 h

SMILES | TGI
Cc1ncc(CSc2ccccc2N)c(CO)c1O | > 100 µM
COC(=O)CCC1(C)C2CCC1/C(=N/O)C2 (stereo not drawn) | > 100 µM
O=C1/C(=C\c2cccc(Oc3ccccc3)c2)S(=O)(=O)C(c2ccccc2)N1c1cc(Cl)ccc1Cl (stereo not drawn) | > 100 µM
CCc1nc(N)c2nc(-c3ccc(C#N)cc3)oc2n1 | > 100 µM

System: UACC-257 melanoma
Experiment: inhibition of tumour cell growth, NCI panel, 48 h

SMILES | TGI
Cc1ncc(CSc2ccccc2N)c(CO)c1O | > 100 µM
COC(=O)CCC1(C)C2CCC1/C(=N/O)C2 (stereo not drawn) | > 100 µM
O=C1/C(=C\c2cccc(Oc3ccccc3)c2)S(=O)(=O)C(c2ccccc2)N1c1cc(Cl)ccc1Cl (stereo not drawn) | 47.9 µM
CCc1nc(N)c2nc(-c3ccc(C#N)cc3)oc2n1 | > 100 µM
S=C(NCCc1ccccn1)c1nc[nH]c1C(=S)NCCc1ccccn1 | > 100 µM

System: HCC-2998 colon
Experiment: inhibition of tumour cell growth, NCI panel, 48 h

SMILES | TGI
COC(=O)CCC1(C)C2CCC1/C(=N/O)C2 (stereo not drawn) | > 100 µM
O=C1/C(=C\c2cccc(Oc3ccccc3)c2)S(=O)(=O)C(c2ccccc2)N1c1cc(Cl)ccc1Cl (stereo not drawn) | 56.6 µM
CCc1nc(N)c2nc(-c3ccc(C#N)cc3)oc2n1 | > 100 µM
S=C(NCCc1ccccn1)c1nc[nH]c1C(=S)NCCc1ccccn1 | > 100 µM

System: SF-295 CNS
Experiment: inhibition of tumour cell growth, NCI panel, 48 h

SMILES | TGI
Cc1ncc(CSc2ccccc2N)c(CO)c1O | > 100 µM
COC(=O)CCC1(C)C2CCC1/C(=N/O)C2 (stereo not drawn) | > 100 µM
O=C1/C(=C\c2cccc(Oc3ccccc3)c2)S(=O)(=O)C(c2ccccc2)N1c1cc(Cl)ccc1Cl (stereo not drawn) | 33.1 µM
CCc1nc(N)c2nc(-c3ccc(C#N)cc3)oc2n1 | > 100 µM
S=C(NCCc1ccccn1)c1nc[nH]c1C(=S)NCCc1ccccn1 | > 100 µM

System: K-562 leukemia
Experiment: inhibition of tumour cell growth, NCI panel, 48 h

SMILES | TGI
Cc1ncc(CSc2ccccc2N)c(CO)c1O | > 100 µM
COC(=O)CCC1(C)C2CCC1/C(=N/O)C2 (stereo not drawn) | > 100 µM
O=C1/C(=C\c2cccc(Oc3ccccc3)c2)S(=O)(=O)C(c2ccccc2)N1c1cc(Cl)ccc1Cl (stereo not drawn) | > 100 µM
CCc1nc(N)c2nc(-c3ccc(C#N)cc3)oc2n1 | > 100 µM
S=C(NCCc1ccccn1)c1nc[nH]c1C(=S)NCCc1ccccn1 | > 100 µM

System: SK-MEL-2 melanoma
Experiment: inhibition of tumour cell growth, NCI panel, 48 h

SMILES | TGI
Cc1ncc(CSc2ccccc2N)c(CO)c1O | > 100 µM
COC(=O)CCC1(C)C2CCC1/C(=N/O)C2 (stereo not drawn) | > 100 µM
O=C1/C(=C\c2cccc(Oc3ccccc3)c2)S(=O)(=O)C(c2ccccc2)N1c1cc(Cl)ccc1Cl (stereo not drawn) | 76.9 µM
CCc1nc(N)c2nc(-c3ccc(C#N)cc3)oc2n1 | > 100 µM
S=C(NCCc1ccccn1)c1nc[nH]c1C(=S)NCCc1ccccn1 | > 100 µM

System: NCI/ADR-RES ovarian
Experiment: inhibition of tumour cell growth, NCI panel, 48 h

SMILES | TGI
Cc1ncc(CSc2ccccc2N)c(CO)c1O | > 100 µM
COC(=O)CCC1(C)C2CCC1/C(=N/O)C2 (stereo not drawn) | > 100 µM
O=C1/C(=C\c2cccc(Oc3ccccc3)c2)S(=O)(=O)C(c2ccccc2)N1c1cc(Cl)ccc1Cl (stereo not drawn) | 94.4 µM
CCc1nc(N)c2nc(-c3ccc(C#N)cc3)oc2n1 | > 100 µM
S=C(NCCc1ccccn1)c1nc[nH]c1C(=S)NCCc1ccccn1 | 65.1 µM

System: TK-10 renal
Experiment: inhibition of tumour cell growth, NCI panel, 48 h

SMILES | TGI
Cc1ncc(CSc2ccccc2N)c(CO)c1O | > 100 µM
COC(=O)CCC1(C)C2CCC1/C(=N/O)C2 (stereo not drawn) | > 100 µM
O=C1/C(=C\c2cccc(Oc3ccccc3)c2)S(=O)(=O)C(c2ccccc2)N1c1cc(Cl)ccc1Cl (stereo not drawn) | 57.3 µM
CCc1nc(N)c2nc(-c3ccc(C#N)cc3)oc2n1 | > 100 µM
S=C(NCCc1ccccn1)c1nc[nH]c1C(=S)NCCc1ccccn1 | > 100 µM

System: T-47D breast
Experiment: inhibition of tumour cell growth, NCI panel, 48 h

SMILES | TGI
Cc1ncc(CSc2ccccc2N)c(CO)c1O | > 100 µM
